Columns and labels:
[1] = Stability of 99mTc-complex by reversed phase HPLC; assay type: physicochemical; details: for approximately 4 hours; reaction mixture, RP-HPLC
Experimental: Radiochemical purity of ^99mTc-complex (25) was determined by HPLC using a C-18 reverse-phase column as a stationary phase and a water/ACN as a mobile phase, while maintaining a flow rate of 1 ml/min.
The complex is stable (>90%) for approximately 4 hours.

[2] = Paper electrophoresis in 0.1 M phosphate buffer (pH7.4); assay type: physicochemical; details: aqueous solution, 0.1 M phosphate buffer pH7.4, 45 min, 400 V (20 V/cm)
Experimental: Filtered preparation was applied on a paper eluted with 0.1 M phosphate buffer (pH7.4) for 45 min. at a 400 V (20 V/cm).

[3] = Static image scan of rabbits after intravenous injection; assay type: in vivo, male New Zealand white rabbits; details: rabbit, image 5 min after injection
Experimental: Static image of male New Zealand white rabbits scanned at 5 and 10 min.
At an image of 5 min. after the injection, high activity was found in the liver. A trace amount of ^99mTc-8-[3-({2-[4-(2-methoxy-phenyl)-piperazin-1-yl]-ethyl}-pyridin-2-yl-amino)-propyl]-[1,2,5,8]dithiadiazecan-6-one (25) seemed to be remained in the brain.

stability of the complex [1]: > 90%
charge observed in paper electrophoresis [2]: neutral charge
activity in the liver on image [3]: high activity
amount remained in the brain on image [3]: trace amount
Substance: ^99mTc-8-[3-({2-[4-(2-methoxy-phenyl)-piperazin-1-yl]-ethyl}-pyridin-2-yl-amino)-propyl]-[1,2,5,8]dithiadiazecan-6-one [Compound 25]

Source: patent US7875287B2, “Tc-labeled arylpiperazine derivatives for imaging serotonin receptor” (Korea Atomic Energy Research Institute, priority 2005, dated 2011)
